The test in a line: Feeding level after administration into rat lateral ventricle. The format is in vivo, Wistar rats. The note with it: 10 nmol/rat, at 1.5 hours and two hours after administration, vs distilled water group, p<0.05. The procedure: Effects on the feeding level by administration of the human TGR23-2 ligand (1-20) into rat lateral ventricle were studied.
Rats were bred for lightning hours from eight to twenty o'clock at 25° C. Male Wistar rats at eight weeks old (260 through 280 g of weight at the time of operation) were anesthetized with 50 mg/kg of pentobarbital, i.p., and each rat was immobilized in a rat brain stereotaxic apparatus. The incisor bar was set 3.3 mm lower from the interaural line. The skull was exposed, and using a dental drill a hole was made on the bone for implantation of a guide cannula AG-8 (0.4 mm inner diameter, 0.5 mm outer diameter, EICOM Co., Ltd.). In addition, three anchor screws were buried around the hole. A stainless-steel guide cannula, AG-8 was inserted in such a manner that its tip would be situated in the upper part of the lateral ventricle. Following the atlas of Paxinos and Watson (1986), the stereotaxic coordinates were set to AP: −0.8 mm, L: 1.5 mm, and H: −4.5 mm from the bregma. The guide cannula was secured to the skull using an instant adhesive, dental cement and anchor screws. […]
For about one week after embedding of guide cannula, rats were bred to be postoperatively recuperative and be naturalized to powder feed. […] Feeding level after infusion was measured with time using Feed-Scale (Columbus) every 30 minutes until four hours after administration.

Where no end group is shown, it is not given here.

Consider “SFRNGVGTGMKKTSFQRAKS [human TGR23-2 ligand (1-20)]”, for which the feeding level entry is reported as “significant decrease of feeding level”.

Source of the values: patent US7323541B2, “Polypeptide DNA thereof and use of the same” (Takeda Pharmaceutical Company Limited, priority 2001, dated 2008).
